Data from patent US20110105611A1, “USE OF MASLINIC ACID FOR THE TREATMENT OF P[…] THEIR SYMPTOMS THROUGH THE INHIBITION OF COX-2” (Biomaslinic S.L., priority 2008, published 2011).
“Also recorded” adds a separate entry of the source. Like-named read-outs stand apart in the source and are kept apart here.

Tests used:
[1] = system: PGE2 production in human monocytes; test: PGE2 production in LPS-stimulated human monocytes of peripheral blood (EIA); type: cell-based; settings: LPS-stimulated human monocytes from peripheral blood
From the text: (§1) 2. Cell Cultures • Isolation and culture of primary monocytes of peripheral blood. Peripheral blood mononuclear cells (PBMC) coming from healthy adults volunteer donors were isolated by venous blood centrifugation through density gradient with Ficoll-Hypaque. The monocytes were separated through adherence to plastic and later cultured in 24-well plates at a density of 50,000 cells/ml for the enzyme immunoassay (EIA) experiments and in 6-well plates for the immunoblot assays. • Culture of human primary chondrocytes. Chondrocytes were bought from Promocell (Heidelberg, Germany) and cultured in medium conditioned for this type of cells. The cells were cultured in 24-well plates for the determination of PGE2 and IL-6. • Culture of rat primary astrocytes. The astrocyte primary cultures were prepared from neonatal rat brains (1 day old). […] The cultures were expanded in 6-well plates and the production of PGE2 measured in cells after the 3 or 4 pass. • Culture of cell lines. […]
Chondrocyte, monocyte and astrocyte cultures were stimulated with the corresponding activators (IL-1, LPS or PMA plus lonomicine) in presence or absence of several concentrations of maslinic acid during the indicated times. […] PGE2 was determined using the EIA system of Assay Designs (catalogue number 901-001) following the manufacturer instructions. […]

COX-2 [2] = test: COX-2 protein expression in LPS-stimulated monocytes (western blot); type: cell-based, human; settings: growing doses of MA, 12 hours, listed as MA
From the text: as §1, with “cells.” for “cells. The cells were cultured in 24-well plates for the determination of PGE2 and IL-6. • Culture of rat primary astrocytes. The astrocyte primary cultures were prepared from neonatal rat brains (1 day old).”
The cells (primary monocytes or SK—N—SH) were stimulated as indicated in each case and lysis solution in 50 μl (20 mM Hepes pH 8.0, 10 mM KCl, 0.15 mM EGTA, 0.15 mM EDTA, 0.5 mM Na3VO4, 5 mM NaF, 1 mM DTT, leupeptin 1 μg/ml, pepstatin 0.5 μg/ml, aprotinin 0.5 μg/ml, 1 mM PMSF y 0.5% NP-40). The protein concentration was determined through the Bradford reagent (Bio-Rad, Richmond, Calif., USA) and 30 μg of proteins were boiled in Laemmli solution and submitted to electrophoresis in gel of SDS/polyacrylamide at 10%. […]

COX-2 [3] = test: COX-2 enzymatic activity in LPS-induced monocytes (conversion of arachidonic acid to PGE2); type: cell-based, human; settings: monocytes LPS 24 hours, MA 15 minutes, arachidonic acid 15 μM 15 minutes
Experimental: In order to determine COX-2 activity, the cells were LPS-stimulated first (10 ng/ml) for 24 hours to induce the cellular expression of the COX-2 protein. After that time the cultures were washed and a new free of serum culture medium, maslinic acid (different concentrations) and arachidonic acid (AA) were added for 15 minutes. During this time, the enzymatic activity of COX-2 was measured by its capacity to produce PGE2 from the AA included in the culture.
Vis-à-vis the possibility of MA acting as inhibitor of COX-2 activity, we induced the expression of COX-2 through the treatment of monocytes with LPS for 24 hours. After this time, the cells were washed three times with a medium without serum and incubated for 15 minutes with growing doses of MA. After this time, arachidonic acid was added to the cultures (15 μM) for other 15 minutes and the conversion to PGE2 was measured by EIA.

[4] = system: promoter of the COX-2 gene; test: COX-2 promoter luciferase assay in transfected SK-N-SH cells; type: cell-based, human; settings: PMA plus ionomycin 6 hours
From the text: as §1
(§2) SK—N—SH cells were transfected with the plasmids COX-2-Luc and IL-6-Luc using the JetPei reagent (Polyplus transfection, France) according to the manufacturer instructions. […] The luciferase activity in the protein extract was determined through the use of the luminometer Autolumat LB9510 (Berthold) following the system instructions of Luciferase assay from Promega (Madison, Wis., USA). […]

[5] = system: PGE2 production in human chondrocytes; test: PGE2 release in primary human chondrocytes stimulated with IL-1; type: cell-based; settings: IL-1 10 U/ml; for release of PGE2 induced by IL-1, higher doses: MA 25 and 50 μg/ml
From the text: (§3) 2. Cell Cultures • Isolation and culture of primary monocytes of peripheral blood. Peripheral blood mononuclear cells (PBMC) coming from healthy adults volunteer donors were isolated by venous blood centrifugation through density gradient with Ficoll-Hypaque. The monocytes were separated through adherence to plastic and later cultured in 24-well plates at a density of 50,000 cells/ml for the enzyme immunoassay (EIA) experiments and in 6-well plates for the immunoblot assays. • Culture of human primary chondrocytes. Chondrocytes were bought from Promocell (Heidelberg, Germany) and cultured in medium conditioned for this type of cells. The cells were cultured in 24-well plates for the determination of PGE2 and IL-6. • Culture of rat primary astrocytes. The astrocyte primary cultures were prepared from neonatal rat brains (1 day old). The upper part of the brain was opened and the meninges carefully separated to avoid contamination of the cultures with fibroblasts. The cerebral cortex was isolated and a cellular suspension was obtained, which was cultured in DMEM conditioned for the astrocyte culture. The cultures were expanded in 6-well plates and the production of PGE2 measured in cells after the 3 or 4 pass. • Culture of cell lines. SK—N—SH (American Tissue Culture collection, HTB 11) is a cell line derived from a human neuroblastoma and an exponential growth in DMEM supplemented by 2 mmol/l L-glutamine, antibiotics and 10% FCS. The cells were cultured at 37° C. and in an atmosphere at 5% CO2.
(§4) Chondrocyte, monocyte and astrocyte cultures were stimulated with the corresponding activators (IL-1, LPS or PMA plus lonomicine) in presence or absence of several concentrations of maslinic acid during the indicated times. […] PGE2 was determined using the EIA system of Assay Designs (catalogue number 901-001) following the manufacturer instructions.
(§5) In order to determine if the effect of MA on the production of PGE2 also occurred in another cell type involved in inflammatory phenomena the anti-inflammatory activity of maslinic acid on primary human chondrocytes was determined. […]

[6] = system: IL-6 production in human chondrocytes; test: IL-6 production in primary human chondrocytes stimulated with IL-1; type: cell-based; settings: IL-1 10 U/ml, concentration dependent
From the text: as §1, with “old). The upper part of the brain was opened and the meninges carefully separated to avoid contamination of the cultures with fibroblasts.” for “old).”
as §5

[7] = system: IL-6 production in human monocytes; test: IL-6 production in LPS-stimulated human monocytes (EIA); type: cell-based
From the text: as §1
(§6) Monocyte cultures were stimulated in the same way as for the production of PGE2 (LPS stimulation for 24 hours) and the amount of 8-iso-prostaglandine F2α (isoprostanes) or IL-6 released by the cells was determined respectively through the systems EIA from Cayman (USA) (catalogue number 516351) or from Pelikine (catalogue number RDI-M1916clb) following the manufacturer instructions.

promoter of IL-6 = test: IL-6 promoter luciferase assay in transfected SK-N-SH cells; type: cell-based, human; settings: listed as MA
From the text: as §1, §2

[8] = system: 8-iso-PGF2α production in human monocytes; test: Isoprostane (8-iso-PGF2α) release in LPS-stimulated human monocytes (EIA); type: cell-based; settings: for release of 8-iso-PGF2α (isoprostanes): human monocytes of peripheral blood after LPS stimulation
From the text: as §3, §6
Isoprostanes such as endoperoxide 8-iso-prostaglandin F2α (8-iso-PGF2α) are metabolites of the oxidation of arachidonic acid and nowadays it is considered one of the best markers of oxidative stress. […]

[9] = system: PGE2 production in primary astrocytes; test: PGE2 production in primary rat astrocytes; type: cell-based
From the text: as §1, §4

[10] = system: PGE2 production in SK-N-SH cells; test: PGE2 production in SK-N-SH neuroblastoma cell line; type: cell-based, human
From the text: as §1, §4

T lymphocytes = test: Activation and proliferation of T lymphocytes stimulated via TCR; type: cell-based
[11] = system: TNFα production in primary monocytes; test: TNFα production in primary monocytes; type: cell-based
tumor cell lines = test: Apoptosis induction in tumor cell lines (concentration comparison); type: cell-based
[12] = system: LPS-stimulated murine peritoneal macrophages; settings: cited from earlier work
[13] = system: mononuclear cells of human peripheral blood; settings: cited from earlier work

Compound: CC1(C)CC[C@]2(C(=O)O)CC[C@]3(C)C(=CC[C@@H]4[C@@]5(C)C[C@@H](O)[C@H](O)C(C)(C)[C@@H]5CC[C@]43C)[C@@H]2C1 [maslinic acid, 2-alpha,3-beta-dihydroxyolean-12-en-28-oic acid]
- production of PGE2 [1]: inhibits the production; also recorded: inhibited the production of PGE2
- production of PGE2 ([1]; listed as Maslinic acid): inhibits the production of PGE2
- expression of COX-2 induced by LPS (western blot) (COX-2 [2]): did not inhibit the expression of COX-2
- enzymatic activity of COX-2 (conversion of arachidonic acid to PGE2, EIA) (COX-2 [3]): inhibits the enzymatic activity of COX-2
- enzymatic activity of COX-2 (conversion of arachidonic acid to PGE2, EIA) (COX-2 [3]; listed as MA): inhibited in a dose-depending manner the enzymatic activity of COX-2
- transcriptional activity of the COX-2 gene (luciferase) [4]: does not inhibit the transcriptional activation of the gene promoter of COX-2
- transcriptional activity of the COX-2 gene (luciferase) ([4]; listed as MA): did not affect the transcriptional activity of the COX-2 gene
- production of PGE2 after stimulation with IL-1, low doses ([5]; MA 0.1 and 1 μg/ml): an increase in the production of PGE2
- release of PGE2 induced by IL-1, higher doses [5]: at high doses inhibits the production of PGE2
- release of PGE2 induced by IL-1, higher doses ([5]; listed as MA): a complete inhibition of the release of this prostaglandin
- production of IL-6 [6]: inhibits the production of IL-6
- production of IL-6 ([6]; listed as MA): completely inhibited
- IL-6 induced by LPS [7]: inhibits the production
- IL-6 induced by LPS ([7]; listed as Maslinic acid): inhibits the production of IL-6
- transcriptional activity of the IL-6 promoter (luciferase), IL-1 stimulation (promoter of IL-6; IL-1, 4 hours): is not produced by a transcriptional inhibition of the gene of IL-6; also recorded: does not inhibit the transcriptional activity of the IL-1 promoter
- transcriptional activity of the IL-6 promoter (luciferase), PMA plus ionomycin stimulation (promoter of IL-6; PMA plus ionomycin, 4 hours): is not produced by a transcriptional inhibition of the gene of IL-6; also recorded: does not inhibit the transcriptional activity of the IL-1 promoter
- release of 8-iso-PGF2α (isoprostanes) [8]: inhibits the production of isoprostanes
- release of 8-iso-PGF2α (isoprostanes) ([8]; listed as MA): inhibits in a concentration depending way the release of 8-iso-PGF2α
- inhibiting power on the production of isoprostanes compared with reference antioxidants ([8]; primary monocytes, listed as MA): higher than that of tocopherol and trolox; also recorded: comparable to that of resveratrol
- production of PGE2 in primary astrocytes [9]: Dual Effect
- production of PGE2 in SK-N-SH cell line (neuroblastoma) ([10]; listed as Maslinic Acid): Dual Effect
- production of PGE2 in SK-N-SH cell line (neuroblastoma) ([10]; listed as Maslinic acid): at high doses inhibits the production of PGE2
- activation and proliferation of T lymphocytes (T lymphocytes): inhibits the activation and proliferation of T lymphocytes
- production of TNFα [11]: inhibits the production
- concentrations inhibiting innate and acquired immune responses versus those required to induce apoptosis in tumor cell lines (tumor cell lines): noticeably lower
- production of NO [12]: inhibits
- production of hydrogen peroxide (ROS) [12]: inhibits
- release of IL-6 [12]: inhibits
- release of TNFα [12]: inhibits
- inhibition of IL-6, TNFα, NO and hydrogen peroxide [13]: do not find
